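These data come from cells grown in 96-well plates and exposed to compound for 48 hours at five concentrations. GI50: concentration for 50% inhibition of growth. At the TGI there is no net growth.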
Legend:
Experiment in all cases: NCI-60 cell line screen, 48 h
[1] = system: 786-0 renal
[2] = system: A498 renal
[3] = system: A549 NSCLC
[4] = system: ACHN renal
[5] = system: BT-549 breast
[6] = system: CAKI-1 renal
[7] = system: CCRF-CEM leukemia
[8] = system: COLO 205 colon
[9] = system: DU-145 prostate
[10] = system: EKVX NSCLC
[11] = system: HCC-2998 colon
[12] = system: HCT-116 colon
[13] = system: HCT-15 colon
[14] = system: HL-60(TB) leukemia
[15] = system: HOP-62 NSCLC
[16] = system: HOP-92 NSCLC
[17] = system: HS 578T breast
[18] = system: HT29 colon
[19] = system: IGROV1 ovarian
[20] = system: K-562 leukemia
[21] = system: KM12 colon
[22] = system: LOX IMVI melanoma
[23] = system: M14 melanoma
[24] = system: MALME-3M melanoma
[25] = system: MCF7 breast
[26] = system: MDA-MB-231 breast
[27] = system: MDA-MB-435
[28] = system: MOLT-4 leukemia
[29] = system: NCI-H226 lung
[30] = system: NCI-H23 lung
[31] = system: NCI-H460 lung
[32] = system: NCI-H522 lung
[33] = system: NCI/ADR-RES ovarian
[34] = system: OVCAR-3 ovarian
[35] = system: OVCAR-4 ovarian
[36] = system: OVCAR-5 ovarian
[37] = system: OVCAR-8 ovarian
[38] = system: PC-3 prostate
[39] = system: RPMI-8226 leukemia
[40] = system: RXF 393 renal
[41] = system: SF-268 CNS
[42] = system: SF-295 CNS
[43] = system: SF-539 CNS
[44] = system: SK-MEL-2 melanoma
[45] = system: SK-MEL-28 melanoma
[46] = system: SK-MEL-5 melanoma
[47] = system: SN12C renal
[48] = system: SNB-19 CNS
[49] = system: SNB-75 CNS
[50] = system: SR leukemia
[51] = system: SW-620 colon
[52] = system: TK-10 renal
[53] = system: U251 CNS
[54] = system: UACC-257 melanoma
[55] = system: UACC-62 melanoma
[56] = system: UO-31 renal

## CN(C)CCCNc1nc2ccccc2c2c(=O)c3cc(F)ccc3sc12
[1]
  GI50: 1470 nM
  TGI: 3020 nM
[2]
  GI50: 1810 nM
  TGI: 3680 nM
[3]
  GI50: 2040 nM
  TGI: 4810 nM
[4]
  GI50: 1560 nM
  TGI: 2920 nM
[5]
  GI50: 10100 nM
  TGI: 22900 nM
[6]
  GI50: 1580 nM
  TGI: 2940 nM
[7]
  GI50: 2230 nM
  TGI: 5310 nM
[8]
  GI50: 2120 nM
  TGI: 5030 nM
[9]
  GI50: 1680 nM
  TGI: 3160 nM
[10]
  GI50: 1590 nM
  TGI: 3240 nM
[11]
  GI50: 1670 nM
  TGI: 3240 nM
[12]
  GI50: 1510 nM
  TGI: 3190 nM
[13]
  GI50: 1650 nM
  TGI: 3200 nM
[14]
  GI50: 2020 nM
  TGI: 4140 nM
[15]
  GI50: 1980 nM
  TGI: 4200 nM
[16]
  GI50: 1170 nM
  TGI: 3960 nM
[17]
  GI50: 1660 nM
  TGI: 3560 nM
[18]
  GI50: 1700 nM
  TGI: 3710 nM
[19]
  GI50: 1470 nM
  TGI: 2940 nM
[20]
  GI50: 2330 nM
  TGI: 8350 nM
[21]
  GI50: 1740 nM
  TGI: 3300 nM
[22]
  GI50: 1630 nM
  TGI: 3050 nM
[23]
  GI50: 1980 nM
  TGI: 3750 nM
[24]
  GI50: 1620 nM
  TGI: 3050 nM
[25]
  GI50: 1130 nM
  TGI: 2660 nM
[26]
  GI50: 1370 nM
  TGI: 2750 nM
[27]
  GI50: 1740 nM
  TGI: 3360 nM
[28]
  GI50: 2130 nM
  TGI: 4480 nM
[29]
  GI50: 1710 nM
  TGI: 3340 nM
[30]
  GI50: 1670 nM
  TGI: 3170 nM
[31]
  GI50: 1760 nM
  TGI: 3440 nM
[32]
  GI50: 1890 nM
  TGI: 3980 nM
[33]
  GI50: 1620 nM
  TGI: 3180 nM
[34]
  GI50: 1670 nM
  TGI: 3170 nM
[35]
  GI50: 2000 nM
  TGI: 4350 nM
[36]
  GI50: 1570 nM
  TGI: 2950 nM
[37]
  GI50: 2090 nM
  TGI: 4910 nM
[38]
  GI50: 1800 nM
  TGI: 3530 nM
[39]
  GI50: 2320 nM
  TGI: 5370 nM
[40]
  GI50: 1460 nM
  TGI: 2910 nM
[41]
  GI50: 1530 nM
  TGI: 3160 nM
[42]
  GI50: 1780 nM
  TGI: 3270 nM
[43]
  GI50: 1610 nM
  TGI: 3010 nM
[44]
  GI50: 2000 nM
  TGI: 4070 nM
[45]
  GI50: 1760 nM
  TGI: 3190 nM
[46]
  GI50: 1700 nM
  TGI: 3120 nM
[47]
  GI50: 1610 nM
  TGI: 3150 nM
[48]
  GI50: 1650 nM
  TGI: 3080 nM
[49]
  GI50: 1330 nM
  TGI: 2750 nM
[50]
  GI50: 4010 nM
  TGI: > 100000 nM
[51]
  GI50: 1620 nM
  TGI: 3180 nM
[52]
  GI50: 1900 nM
  TGI: 3670 nM
[53]
  GI50: 1900 nM
  TGI: 4410 nM
[54]
  GI50: 2080 nM
  TGI: 4210 nM
[55]
  GI50: 1750 nM
  TGI: 3240 nM
[56]
  GI50: 1480 nM
  TGI: 2830 nM

— PubChem BioAssay (NCI)
